Laboratory results reported in US8048915B2, “Biologically active complex” (BioMas Ltd., priority 2001, dated 2011).
Several values for one entry are separate records, joined by “and”; a condition that tells them apart may be missing. Equal entries are not always repeated. Where two headings read alike, the source gives them in different places.

Assays:
[1] = system: Ha-Ras transformed NIH-3T3 cells; assay: Colony growth of Ha-Ras transformed NIH-3T3 cells; type: cell-based; settings: 0.005-5 μg/ml in PBS; one week; clones counted
Experimental: (§1) 5×10^2 cells were plated per 60 mm dish and incubated with different concentrations (0.005-5 μg/ml) of the complex in PBS. A week later, the cells were stained with Gimsa and clones were counted. Similar experiments were conducted using V-mos transformed NIH-3T3 cells, and also using Ph2TeCl2 and Ph3TeCl, with both types of transformed cells.

[2] = system: V-mos transformed NIH-3T3 cells; assay: Colony growth of V-mos transformed NIH-3T3 cells; type: cell-based; settings: one week; clones counted
Experimental: as §1

[3] = Solubility in phosphate buffer solution (PBS) at pH7; type: physicochemical
[4] = system: IL-2 receptors; assay: IL-2 receptor sites on human mononuclear cells, fluoresceinated antibody; type: cell-based
Experimental: This example provides an assay to detect the presence of receptor sites for IL-2. […] The cells were washed twice with PBS and then incubated with a specific fluoresceinated antibody against IL-2 receptors as described in Uchiyama et al, J. Immunol.

[5] = system: human mononuclear cells; assay: Proliferation of human mononuclear cells (Example 14); type: cell-based; settings: for proliferation of human mononuclear cells (3H methyl-thymidine): 72 hours + 24 hours label
Experimental: Human mononuclear cells were obtained by layering heparinized blood over a Ficoll/Hypaque gradient. The mononuclear cells were resuspended in enriched RPMI, rinsed three times and brought to a concentrations of 5×10^5cells/ml enriched RPMI. Varying concentrations of the complexes of Ex. 1 and Ex. 7(a), ranging from 0.005 μg to 5 μg/cell mixture were added to the cells. Aliquots of 0.2 ml of each sample were placed in wells of microplates (triplicates).

[6] = system: IL-2 receptors of human mononuclear cells; assay: Induction of IL-2 receptors of human mononuclear cells (proliferation with recombinant IL-2, 3H thymidine uptake); type: cell-based
Experimental: Human MNC were brought to a concentration of 10^6 cells/ml. RPMI+10% FCS. Aliquots of 0.2 ml. were placed in duplicate wells of microdishes and plates were incubated at 37° C. for 24 hrs. […] Plates were further incubated for 48 hrs and labeled with ^3H thymidine 24 hrs before harvesting. The proliferation was measured by ^3HT uptake as described by Gillis et al, J. Immunol. […] The results are expressed in counts per minute.

[7] = system: human mononuclear cells; assay: Proliferation of human mononuclear cells (Example 14); type: cell-based; settings: 72 hours + 24 hours label
[8] = system: human mononuclear cells; settings: range of 1 to 10 ng/ml of cells; 72 hours incubation
Experimental: Aliquots of 0.2 ml from each sample were placed in wells of microplates (NUNC) (triplicates). […] Cells were further incubated overnight and harvested with a cell harvester.
Cells were further incubated overnight and harvested with a cell harvester.

[9] = system: IL-2
Experimental: The complexes were administered in these dilutions, as drinking water, to male Balb-C mice, 6-8 weeks of age over a 4 day period. The exact amount of liquid intake was recorded daily. […] The cells were incubated at a concentration of 10^7 cells/ml in enriched RPMI containing 2 μg/ml of con-A for 24 hours at 37° C. The supernatants were collected and tested for IL-2 content.

[10] = 10 μg/ml H2O as drinking water over 4 days

## Cl[Te](Cl)(c1ccccc1)c1ccccc1 [Ph2TeCl2, reference compound]
[1]
  number of colonies / growth compared with control: did not inhibit their growth
[2]
  inhibition of growth: none of the complex, Ph2TeCl2 or Ph3TeCl inhibited the growth

## Cl[Te](c1ccccc1)(c1ccccc1)c1ccccc1 [Ph3TeCl, reference compound]
[1]
  number of colonies / growth compared with control: did not inhibit their growth
[2]
  inhibition of growth: none of the complex, Ph2TeCl2 or Ph3TeCl inhibited the growth

## Cl[Te](Cl)(Cl)Cl [TeCl4, tellurium tetrachloride]
[3]
  solubility: 2.3 ± 0.1; mg Te/100 ml PBS

## O=[Te]=O [TeO2, Tellurium dioxide, reference compound]
[4]; 1 μg/ml, 24 hours incubation
  cells positive for IL-2 receptors: 5%
[5]; 1 μg/ml
  proliferation of human mononuclear cells (3H methyl-thymidine): 2842
[5]; 5 μg/ml
  proliferation of human mononuclear cells (3H methyl-thymidine): 3028
[5]; 1 × 10^−1 μg/ml
  proliferation of human mononuclear cells (3H methyl-thymidine): 4825
[5]; 1 × 10^−2 μg/ml
  proliferation of human mononuclear cells (3H methyl-thymidine): 4730
[5]; 5 × 10^−1 μg/ml
  proliferation of human mononuclear cells (3H methyl-thymidine): 4773
[5]; 5 × 10^−2 μg/ml
  proliferation of human mononuclear cells (3H methyl-thymidine): 5802
[5]; any concentration that was tested
  effect on proliferation of human mononuclear cells: *The concentrations that induced proliferation range from 5 × 10^−1 to 1 × 10^−1 μg. No significant effect was found for TeO2 at any concentration that was tested.
[6]; Test A, 1 μg/ml
  proliferation, 3HT uptake: 1563 counts per minute
[6]; Test A, 1 × 10^−2 μg/ml
  proliferation, 3HT uptake: 3108 counts per minute
[6]; Test A, 1 × 10^−3 μg/ml
  proliferation, 3HT uptake: 2867 counts per minute
[6]; Test A, 1 × 10^−4 μg/ml
  proliferation, 3HT uptake: 5540 counts per minute
[6]; Test A, 1 × 10^−5 μg/ml
  proliferation, 3HT uptake: 3442 counts per minute
[6]; Test A, 5 × 10^−1 μg/ml
  proliferation, 3HT uptake: 4667 counts per minute
[6]; Test A, 5 × 10^−2 μg/ml
  proliferation, 3HT uptake: 2515 counts per minute
[6]; Test A, 7 × 10^−1 μg/ml
  proliferation, 3HT uptake: 2475 counts per minute
[6]; Test B, 1 μg/ml
  proliferation, 3HT uptake: 3275 counts per minute
[6]; Test B, 1 × 10^−2 μg/ml
  proliferation, 3HT uptake: 3077 counts per minute
[6]; Test B, 1 × 10^−3 μg/ml
  proliferation, 3HT uptake: 3800 counts per minute
[6]; Test B, 1 × 10^−4 μg/ml
  proliferation, 3HT uptake: 2925 counts per minute
[6]; Test B, 1 × 10^−5 μg/ml
  proliferation, 3HT uptake: 3645 counts per minute
[6]; Test B, 5 × 10^−1 μg/ml
  proliferation, 3HT uptake: 5405 counts per minute
[6]; Test B, 5 × 10^−2 μg/ml
  proliferation, 3HT uptake: 4280 counts per minute
[6]; Test B, 7 × 10^−1 μg/ml
  proliferation, 3HT uptake: 4302 counts per minute
[7]; 1 × 10^−3 μg/ml
  proliferation of human mononuclear cells (3H methyl-thymidine): 6168
[7]; 1 × 10^−4 μg/ml
  proliferation of human mononuclear cells (3H methyl-thymidine): 5331

## C1CO[Te]2(O1)OCCO2 [preparation 3]
[3]
  solubility: 16 ± 0.4; mg Te/100 ml PBS

## Phytohemagglutinin M [Phytohemagglutinin M (Difco), reference compound]
[4]; in the presence of PHA, concentration not given
  cells positive for IL-2 receptors: 80%
[6]; Test A, positive control, concentration not given
  proliferation, 3HT uptake: Phytohemagglutinin M (Difco) 195,432 counts per minute
[6]; Test B, positive control, concentration not given
  proliferation, 3HT uptake: Phytohemagglutinin M (Difco) 125,272 counts per minute

## equimolar complex of TeO2 and ethane-1,2-diol [7(b)]
[6]; Test B, 1 μg/ml
  proliferation, 3HT uptake: 2620 counts per minute
[6]; Test B, 1 × 10^−2 μg/ml
  proliferation, 3HT uptake: 3928 counts per minute
[6]; Test B, 1 × 10^−3 μg/ml
  proliferation, 3HT uptake: 3007 counts per minute
[6]; Test B, 1 × 10^−4 μg/ml
  proliferation, 3HT uptake: 2327 counts per minute
[6]; Test B, 1 × 10^−5 μg/ml
  proliferation, 3HT uptake: 2242 counts per minute
[6]; Test B, 5 × 10^−1 μg/ml
  proliferation, 3HT uptake: 2402 counts per minute
[6]; Test B, 5 × 10^−2 μg/ml
  proliferation, 3HT uptake: 3290 counts per minute
[6]; Test B, 7 × 10^−1 μg/ml
  proliferation, 3HT uptake: 2000 counts per minute

## equimolar complex of TeO2 and ethylene glycol [Example 7(a)]
[5]; 1 × 10^−4 μg/ml, listed as Ex. 7(a)
  proliferation of human mononuclear cells (3H methyl-thymidine): 4321 and 2332
[5]; 5 × 10^−2 μg/ml, listed as Ex. 7(a)
  proliferation of human mononuclear cells (3H methyl-thymidine): 5953 and 5532
[8]
  increase of proliferation of human mononuclear cells: 10 fold
[9]; 1 μg/ml H2O as drinking water over 4 days
  IL-2 content, cpm: 32843 cpm
[9]; [10]
  IL-2 content, cpm: 42500 cpm
  Percent increase as compared to control: +30%
[9]; 25 μg/ml H2O as drinking water over 4 days
  IL-2 content, cpm: 36815 cpm
[9]; orally in an aqueous diluent
  inducing lymphokine production when given orally: active
[6]; Test B, 1 μg/ml
  proliferation, 3HT uptake: 9315 counts per minute
[6]; Test B, 1 × 10^−2 μg/ml
  proliferation, 3HT uptake: 6418 counts per minute
[6]; Test B, 1 × 10^−3 μg/ml
  proliferation, 3HT uptake: 5167 counts per minute
[6]; Test B, 1 × 10^−4 μg/ml
  proliferation, 3HT uptake: 5372 counts per minute
[6]; Test B, 1 × 10^−5 μg/ml
  proliferation, 3HT uptake: 6397 counts per minute
[6]; Test B, 5 × 10^−1 μg/ml
  proliferation, 3HT uptake: 8688 counts per minute
[6]; Test B, 5 × 10^−2 μg/ml
  proliferation, 3HT uptake: 5538 counts per minute
[6]; Test B, 7 × 10^−1 μg/ml
  proliferation, 3HT uptake: 5250 counts per minute
